Results as given in patent US20160009693A1, “HERBICIDAL COMPOUNDS” (SYNGENTA LIMITED, priority 2013, published 2016).

What was measured:
Type in all cases: in vivo
Conditions in all cases: applied at 1000 g/h, evaluated after 13 days
[1] = system: Ipomoea hederacea (IPOHE); assay: Herbicidal glasshouse test, pre-emergence, IPOHE
[2] = system: Ipomoea hederacea (IPOHE); assay: Herbicidal glasshouse test, post-emergence, IPOHE
[3] = system: Amaranthus retoflexus (AMARE); assay: Herbicidal glasshouse test, pre-emergence, AMARE
Summary of the method: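 This pre-emergence glasshouse herbicide test used Amaranthus retoflexus sown in standard soil. After one day of cultivation, an aqueous spray made from the technical ingredient in 50:50 acetone/water with 0.5% Tween 20 was applied. Pots stayed at 24/16° C., 14 hours light, 65% humidity, with twice-daily watering. Damage was rated on a five point scale (1=0-19% up to 5=80-100%).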

[4] = system: Echinochloa crus-galli (ECHCG); assay: Herbicidal glasshouse test, pre-emergence, ECHCG
Summary of the method: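 In this pre-emergence glasshouse test, ECHCG seeds sown in pots of standard soil were sprayed one day after sowing with the test material in acetone/water (50:50) containing 0.5% Tween 20. Plants were kept at 24/16° C., 14 hours light, 65% humidity, and watered twice daily. Percentage damage was rated after 13 days on a 1–5 scale.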

[5] = system: Solanum nigrum (SOLNI); assay: Herbicidal glasshouse test, post-emergence, SOLNI
[6] = system: Setaria faberi (SETFA); assay: Herbicidal glasshouse test, post-emergence, SETFA
Summary of the method: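 This post-emergence glasshouse herbicide test used potted Setaria faberi. Plants were cultivated for 8 days under controlled conditions (24/16° C. day/night, 14 hours light, 65% humidity) and then treated with an aqueous spray made from an acetone/water (50:50) solution containing 0.5% Tween 20. After 13 days of further growth with twice-daily watering, damage was rated on a five point scale (5=80-100%; 1=0-19%).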

[7] = system: Echinochloa crus-galli (ECHCG); assay: Herbicidal glasshouse test, post-emergence, ECHCG
Summary of the method: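 In this post-emergence glasshouse test, barnyard grass (ECHCG) was cultivated for 8 days under controlled conditions (24/16° C. day/night, 14 hours light, 65% humidity). It was then sprayed with an aqueous solution of the technical compound in acetone / water (50:50) with 0.5% Tween 20. Plants were kept under the same conditions and watered twice daily. After 13 days, percentage damage was rated on a five point scale (5=80-100%; 1=0-19%).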

[8] = system: Solanum nigrum (SOLNI); assay: Herbicidal glasshouse test, pre-emergence, SOLNI
Summary of the method: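 This pre-emergence glasshouse herbicide test used Solanum nigrum sown in standard soil. One day after sowing, pots were sprayed with the compound in acetone/water (50:50) with 0.5% Tween 20. They were then grown at 24/16° C., with 14 hours light and 65% humidity, and watered twice daily. Percentage damage was scored after 13 days on a five point scale, where 5=80-100% and 1=0-19%.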

[9] = system: Setaria faberi (SETFA); assay: Herbicidal glasshouse test, pre-emergence, SETFA
[10] = system: Amaranthus retoflexus (AMARE); assay: Herbicidal glasshouse test, post-emergence, AMARE
Summary of the method: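 This post-emergence glasshouse test used AMARE plants raised in standard soil for 8 days under controlled conditions (24/16° C. day/night, 14 hours light, 65% humidity). Foliage was sprayed with formulated compound in acetone/water (50:50) containing 0.5% Tween 20. Plants were then watered twice daily, and after 13 days percentage damage was rated on a five point scale.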

[11] = system: Alopecurus myosuroides (ALOMY); assay: Herbicidal glasshouse test, pre-emergence, ALOMY
[12] = system: Alopecurus myosuroides (ALOMY); assay: Herbicidal glasshouse test, post-emergence, ALOMY

CC#CCn1c(=O)c(C(=O)Nc2nnnn2C)nn(C)c1=O [Compound 1.092]
PRE Application IPOHE, percentage damage (five point scale) [1]: 5 (5=80-100%)
POST Application IPOHE, percentage damage (five point scale) [2]: 5 (5=80-100%)
PRE Application AMARE, percentage damage (five point scale) [3]: 5 (5=80-100%)
PRE Application ECHCG, percentage damage (five point scale) [4]: 5 (5=80-100%)
POST Application SOLNI, percentage damage (five point scale) [5]: 5 (5=80-100%)
POST Application SETFA, percentage damage (five point scale) [6]: 5 (5=80-100%)
POST Application ECHCG, percentage damage (five point scale) [7]: 5 (5=80-100%)
PRE Application SOLNI, percentage damage (five point scale) [8]: 5 (5=80-100%)
PRE Application SETFA, percentage damage (five point scale) [9]: 5 (5=80-100%)
POST Application AMARE, percentage damage (five point scale) [10]: 5 (5=80-100%)
PRE Application ALOMY, percentage damage (five point scale) [11]: 4 (4=60-79%)
POST Application ALOMY, percentage damage (five point scale) [12]: 4 (4=60-79%)

Cn1nnnc1NC(=O)c1nn(C)c(=O)n(Cc2c(Cl)cccc2Cl)c1=O [Compound 1.072]
PRE Application IPOHE, percentage damage (five point scale) [1]: 3 (3=40-59%)
POST Application IPOHE, percentage damage (five point scale) [2]: 4 (4=60-79%)
PRE Application AMARE, percentage damage (five point scale) [3]: 5 (5=80-100%)
PRE Application ECHCG, percentage damage (five point scale) [4]: 5 (5=80-100%)
POST Application SOLNI, percentage damage (five point scale) [5]: 5 (5=80-100%)
POST Application SETFA, percentage damage (five point scale) [6]: 4 (4=60-79%)
POST Application ECHCG, percentage damage (five point scale) [7]: 4 (4=60-79%)
PRE Application SOLNI, percentage damage (five point scale) [8]: 5 (5=80-100%)
PRE Application SETFA, percentage damage (five point scale) [9]: 2 (2=20-39%)
POST Application AMARE, percentage damage (five point scale) [10]: 5 (5=80-100%)
PRE Application ALOMY, percentage damage (five point scale) [11]: 5 (5=80-100%)
POST Application ALOMY, percentage damage (five point scale) [12]: 4 (4=60-79%)

Cc1cc(-n2c(=O)c(C(=O)Nc3nnnn3C)nn(C)c2=O)ccc1F [Compound 1.037]
PRE Application IPOHE, percentage damage (five point scale) [1]: 5 (5=80-100%)
POST Application IPOHE, percentage damage (five point scale) [2]: 5 (5=80-100%)
PRE Application AMARE, percentage damage (five point scale) [3]: 5 (5=80-100%)
PRE Application ECHCG, percentage damage (five point scale) [4]: 5 (5=80-100%)
POST Application SOLNI, percentage damage (five point scale) [5]: 5 (5=80-100%)
POST Application SETFA, percentage damage (five point scale) [6]: 5 (5=80-100%)
POST Application ECHCG, percentage damage (five point scale) [7]: 5 (5=80-100%)
PRE Application SOLNI, percentage damage (five point scale) [8]: 5 (5=80-100%)
PRE Application SETFA, percentage damage (five point scale) [9]: 5 (5=80-100%)
POST Application AMARE, percentage damage (five point scale) [10]: 5 (5=80-100%)
PRE Application ALOMY, percentage damage (five point scale) [11]: 5 (5=80-100%)
POST Application ALOMY, percentage damage (five point scale) [12]: 5 (5=80-100%)

Cn1nnnc1NC(=O)c1nn(C)c(=O)n(Cc2ccc(OC(F)F)cc2)c1=O [Compound 1.066]
PRE Application IPOHE, percentage damage (five point scale) [1]: 5 (5=80-100%)
POST Application IPOHE, percentage damage (five point scale) [2]: 5 (5=80-100%)
PRE Application AMARE, percentage damage (five point scale) [3]: 5 (5=80-100%)
PRE Application ECHCG, percentage damage (five point scale) [4]: 5 (5=80-100%)
POST Application SOLNI, percentage damage (five point scale) [5]: 5 (5=80-100%)
POST Application SETFA, percentage damage (five point scale) [6]: 1 (1=0-19%)
POST Application ECHCG, percentage damage (five point scale) [7]: 5 (5=80-100%)
PRE Application SOLNI, percentage damage (five point scale) [8]: 5 (5=80-100%)
PRE Application SETFA, percentage damage (five point scale) [9]: 1 (1=0-19%)
POST Application AMARE, percentage damage (five point scale) [10]: 5 (5=80-100%)
PRE Application ALOMY, percentage damage (five point scale) [11]: 5 (5=80-100%)
POST Application ALOMY, percentage damage (five point scale) [12]: 5 (5=80-100%)

CCc1ccc(-n2c(=O)c(C(=O)Nc3nnnn3C)nn(C)c2=O)cc1 [Compound 1.006]
PRE Application IPOHE, percentage damage (five point scale) [1]: 5 (5=80-100%)
POST Application IPOHE, percentage damage (five point scale) [2]: 5 (5=80-100%)
PRE Application AMARE, percentage damage (five point scale) [3]: 5 (5=80-100%)
PRE Application ECHCG, percentage damage (five point scale) [4]: 5 (5=80-100%)
POST Application SOLNI, percentage damage (five point scale) [5]: 5 (5=80-100%)
POST Application SETFA, percentage damage (five point scale) [6]: 5 (5=80-100%)
POST Application ECHCG, percentage damage (five point scale) [7]: 5 (5=80-100%)
PRE Application SOLNI, percentage damage (five point scale) [8]: 5 (5=80-100%)
PRE Application SETFA, percentage damage (five point scale) [9]: 5 (5=80-100%)
POST Application AMARE, percentage damage (five point scale) [10]: 5 (5=80-100%)
PRE Application ALOMY, percentage damage (five point scale) [11]: 5 (5=80-100%)
POST Application ALOMY, percentage damage (five point scale) [12]: 5 (5=80-100%)
